Results published in patent EP3360553B1, “MOLECULES AND PHARMACEUTICAL COMPOSITIONS, IN PARTICULAR FOR TREATING A GENETIC BLOOD DISORDER” (Université de La Réunion, priority 2017, dated 2018).

What was measured:
[1] = tested on: laminin 521; experiment: Red blood cell adhesion to laminin 521 under flow conditions; format: cell-based; conditions: RBCs from sickle cell disease patients incubated with molecule at 0.1 mM for 30 min at room temperature, recombinant human laminin 521, 3 blood samples
Procedure: (§1) In the figures: • Figure 1: Adhesion of RBCs from sickle cell disease patients (N = 3) to laminin 521. Results are presented as a percentage of adhesion, 100% of adhesion being the adhesion level observed for RBCs incubated with buffer supplemented with DMSO alone. • Figure 2: Adhesion of RBCs from sickle cell disease patients to laminin 521 in the presence of increasing concentrations of Molecule 2 and Molecule 3. Results are presented as a percentage of adhesion, 100% of adhesion being the adhesion level observed for RBCs incubated without the molecules.
Red blood cell adhesion to laminin 521 was measured under flow conditions using Vena8 Endothelial+™ biochips (internal channel dimensions: length 20 mm, width 0.8 mm, height 0.12 mm) and ExiGo™ Nanopumps (Cellix Ltd, Dublin, Ireland). Three different solutions were prepared with either Molecule 1, Molecule 2 or Molecule 3 (0.1 mM) by solubilizing Molecule 1, 2 or 3 using DMSO. Recombinant human laminin 521 (BioLamina) at 5 ng/µl was immobilized on the internal surface of the biochips at 4°C overnight. RBCs from sickle cell disease patients were suspended at 5x10^7 cells/ml in Hanks balanced salt solution, without calcium chloride and magnesium sulfate (Sigma-Aldrich) supplemented with 0.4% BSA, and incubated with the solution comprising either Molecule 1, Molecule 2 or Molecule 3 at 0.1 mM or DMSO, for 30 min at room temperature (20°C) and perfused through the biochip channels for 10 min at a shear stress of 0.5 dyn/cm^2 followed by a washout at the same shear stress with the buffer alone for 30 min. Five minutes washouts with the Hanks/0.4% BSA buffer were performed at 1, 2, 3, 4 and 5 dyn/cm^2. After each wash, adherent RBCs were counted in 7 representative areas along the centerline of each channel using the AxioObserver Z1 microscope and ZEN analysis software (Carl Zeiss, Le Pecq, France) and the mean number of adherent RBCs was determined for each condition and each washout step (Figure 1). Images of the same 7 areas were obtained throughout each experiment. […]

[2] = tested on: RBCs; experiment: Control of hemolysis (RBC concentration by CASY Cell Counter and Analyzer); format: cell-based; conditions: 0.1 mM, 30 min incubation at room temperature; for RBCs/ml (x10^6): Hanks/0.4% BSA buffer, RBCs suspended at 6x10^6 cells/ml; for decrease of RBC concentration compared to vehicle (DMSO) alone: result in words
Procedure: (§2) At the end of the 30 min of incubation with the molecules, the number of RBC for the control of hemolysis was measure by using CASY® Cell Counter and Analyzer.
(§3) For hemolysis assays, RBCs were suspended at 6x10^6 cells/ml in the Hanks/0.4% BSA buffer and the concentration measured accurately using the CASY® Cell Counter and Analyzer. RBCs were then incubated with the solution comprising either Molecule 1, Molecule 2 or Molecule 3 at 0.1 mM or DMSO, for 30 min at room temperature. After this incubation time cell concentration was measured again using CASY® Cell Counter and Analyzer (Table 1). If hemolysis occurs during this incubation time it will be reflected by a decrease in the RBC concentration.

[3] = tested on: laminin 521; experiment: Dose effect in the RBC adhesion assay to laminin 521; format: cell-based, human; conditions: 50, 100 and 200 µM; RBCs from sickle cell disease patients; same conditions as Example 1
Procedure: as §1
Red blood cell adhesion to laminin 521 was measured under flow conditions using Vena8 Endothelial+™ biochips (internal channel dimensions: length 20 mm, width 0.8 mm, height 0.12 mm) and ExiGo™ Nanopumps (Cellix Ltd, Dublin, Ireland). Three different solutions were prepared with either Molecule 1, Molecule 2 or Molecule 3 (0.1 mM) by solubilizing Molecule 1, 2 or 3 using DMSO. Recombinant human laminin 521 (BioLamina) at 5 ng/µl was immobilized on the internal surface of the biochips at 4°C overnight. […] After each wash, adherent RBCs were counted in 7 representative areas along the centerline of each channel using the AxioObserver Z1 microscope and ZEN analysis software (Carl Zeiss, Le Pecq, France) and the mean number of adherent RBCs was determined for each condition and each washout step (Figure 1). […]

[4] = Control of hemolysis (RBC concentration by CASY Cell Counter and Analyzer); format: cell-based; conditions: red blood cells; 0.1 mM, 30 min incubation at room temperature; compared to vehicle (DMSO); read-out: decrease of the RBC concentration
Procedure: as §2, §3

SMILES | RBC adhesion to laminin [1] | RBCs/ml (x10^6) [2] | decrease of RBC concentration compared to vehicle (DMSO) alone [2] | inhibition of RBC adhesion to laminin with increasing concentrations [3] | hemolysis at 0.5 h, 100 µM [4] [%]
CCC(=O)N1CCc2ccc(OCc3nc(C(=O)NCc4ccccc4)co3)cc2C1c1ccc(C)cc1 (centres unmarked) [Molecule 1] | not | 6.04 x10^6 RBCs/ml | no decrease | – | –
Cc1c(CC(=O)NC(C(=O)O)c2ccccc2)c(=O)oc2c(C)c3oc4c(c3cc12)CCCC4 (centres unmarked) [Molecule 2] | inhibited | 5.55 x10^6 RBCs/ml | – | increasing inhibition | < 10
O=S(=O)(O)CCCn1c(=NN=Cc2c(O)ccc3ccccc23)sc2ccccc21 [Molecule 3] | inhibited | 6.02 x10^6 RBCs/ml | no decrease | increasing inhibition | –
